The test system of assay [1] is Sprague-Dawley (SD) male rats. The assay is described as follows: Open cage schedule-fed rat model. The class given is in vivo. Conditions: dose 15 mg/kg p.o. Here is the method: The ability of the present compounds to reduce weight is determined using the in vivo open cage Schedule-fed rat model.
Sprague-Dawley (SD) male rats of an age of about 1½ to 2 months and a weight of about 200-250 g are purchased from Møllegård Breeding and Research Centre A/S (Denmark). On arrival they are allowed some days of acclimatisation before being placed in individual open plastic cages. They are habituated to the presence of food (Altromin pelleted rat chow) in their home cage for only 7 hours each day (from 07.30 to 14.30, seven days a week). Water is present ad libitum. Once the consumption of food has stabilised after 7 to 9 days, the animals are ready for use.
Each animal is used only once to avoid carry-over effects between treatments. During the test sessions, the test compound is administered intraperitoneally or orally 30 min before the start of the sessions. One group of animals is administered the test compound at different doses, and a control group of animals receives vehicle. Food and water intake are monitored at 1, 2 and 3 hours post administration.
Any side effects (manifested as barrel-rolling, bushy fur etc.) may rapidly be detected, since the animals are kept in transparent plastic cages to enable continuous monitoring.

For assay [2], the target named is human H3 receptor (Homo sapiens (Human), UniProt Q9Y5N1). The experiment in a line: Functional assay II, [35S]GTPγS assay. The class given is biochemical. As to conditions: membranes from CHO cells stably expressing the human H3 receptor. As for the experimental part: The ability of the compounds to bind and interact with the human H3 receptor as agonists, inverse agonists and/or antagonists, is determined by a functional assay, named [^35S]GTPγS assay. The assay measures the activation of G proteins by catalyzing the exchange of guanosine 5′-diphosphate (GDP) by guanosine 5′-triphosphate (GTP) at the -subunit. The GTP-bounded G proteins dissociate into two subunits, GGTP and Gβγ, which in turn regulate intracellular enzymes and ion channels. GTP is rapidly hydrolysed by the G-sub-unit (GTPases) and the G protein is deactivated and ready for a new GTP exchange cycle. […] GTPγS, a non-hydrolysed analogue of GTP, is determined. This process can be monitored in vitro by incubating cell membranes containing the G protein coupled receptor H3 with GDP and [^35S] […] This procedure is repeated twice except for the last homogenization step, the protein concentration is determined, and membranes are diluted to a protein concentration of 2 mg/ml, aliquoted and kept at −80° C. until use.
Sequence of human H3 receptor (Q9Y5N1 whole entry): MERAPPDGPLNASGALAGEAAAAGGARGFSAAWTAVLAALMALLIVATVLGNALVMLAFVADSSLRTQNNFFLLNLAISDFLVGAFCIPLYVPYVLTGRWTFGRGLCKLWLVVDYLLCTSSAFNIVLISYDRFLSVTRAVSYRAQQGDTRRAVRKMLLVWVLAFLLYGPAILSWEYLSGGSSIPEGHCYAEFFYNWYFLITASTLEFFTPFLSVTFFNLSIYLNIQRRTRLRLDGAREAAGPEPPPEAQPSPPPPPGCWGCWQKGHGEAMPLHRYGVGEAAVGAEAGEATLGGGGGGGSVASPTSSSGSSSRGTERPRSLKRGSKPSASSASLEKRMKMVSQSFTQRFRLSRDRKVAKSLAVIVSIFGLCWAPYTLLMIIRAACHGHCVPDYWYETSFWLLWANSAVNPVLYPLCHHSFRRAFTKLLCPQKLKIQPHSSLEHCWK
In order to study the presence and the potency of an inverse agonist/antagonist, the H3-receptor agonist ligand R-α-methyl histamine (RAMHA) is added. The ability of the test compound to counteract the effect of RAMHA is measured. […] The plates are centrifuged at 1500 rpm for 10 min and the radioactivity is measured using a Top-counter. […]
Background: GTPγS is a poorly hydrolysed GTP analogue; its binding reports G protein activation.

Counter-ions that a name gives are not always drawn.

The term Ki denotes a measure of affinity in units of concentration, obtained from inhibition or displacement. As for `O=C(O)C(F)(F)F.c1cc2nc(N3CCN(C4CC4)CC3)sc2cc1CN1CCCC1` [Example 17, 2-(4-Cyclopropylpiperazin-1-yl)-6-(pyrrolidin-1-ylmethyl)benzothiazole, trifluoroacetate], the “Open cage schedule-fed rat model, food intake at 3 h” value in assay [1] was 81.2 % of vehicle. This compound also gave an inhibition constant (Ki) in assay [2] of 1.8 nM.

As to `c1cc2nc(N3CCN(C4CC4)CC3)sc2cc1CNC1CC1` [Example 27, Cyclopropyl-[2-(4-cyclopropylpiperazin-1-yl)benzothiazol-6-ylmethyl]-amine, trifluoroacetate], the “Open cage schedule-fed rat model, food intake at 3 h” value in assay [1] is listed as 82.9 % of vehicle. The affinity in assay [2], expressed as Ki, was 0.9 nM.

The values above are taken from US8772285B2, “Benzothiazoles having histamine H3 receptor activity” (High Point Pharmaceuticals, LLC, priority 2006, dated 2014).
